ChEMBL document CHEMBL6087402, “Design, synthesis, and in vitro and in vivo biological evaluation of dihydroartemisinin derivatives as potent anti-cancer agents with ferroptosis-inducing and apoptosis-activating properties” (Eur J Med Chem, 2025)
Calls of active or inactive are those of the source. No cut-off for these calls is given here. Peptide text beside a SMILES is read from it. * marks the point of attachment. Cbz = O=C(OCc1ccccc1)*; CH2F = FC*

Legend:
[1] = Selectivity index, ratio of IC50 for human L02 cells to IC50 for human Bel-7402 cells; assay type: toxicity; settings: L02 cells versus Bel-7402 cells, read-out: Ratio IC50
[2] = Selectivity index, ratio of IC50 for human L02 cells to IC50 for human SW620 cells; assay type: toxicity; settings: L02 cells versus SW620 cells, read-out: Ratio IC50
[3] = Selectivity index, ratio of IC50 for human L02 cells to IC50 for human HCT-116 cells; assay type: toxicity; settings: L02 cells versus HCT-116 cells, read-out: Ratio IC50
[4] = tested on: HCT-116; test: Anti-proliferative activity against human HCT-116 cells incubated for 72 hrs by MTT assay; assay type: functional, cell-based; settings: HCT-116, 72 h
[5] = Selectivity index, ratio of IC50 for human L02 cells to IC50 for human A549 cells; assay type: toxicity; settings: L02 cells versus A549 cells, read-out: Ratio IC50
[6] = tested on: Bel-7402; test: Anti-proliferative activity against human Bel-7402 cells incubated for 72 hrs by MTT assay; assay type: functional, cell-based; settings: Bel-7402, 72 h
[7] = tested on: SW-620; test: Anti-proliferative activity against human SW620 cells incubated for 72 hrs by MTT assay; assay type: functional, cell-based; settings: SW-620, 72 h
[8] = tested on: A549; test: Anti-proliferative activity against human A549 cells incubated for 72 hrs by MTT assay; assay type: functional, cell-based; settings: A549, 72 h
[9] = Anti-proliferative activity against human L02 cells incubated for 72 hrs by MTT assay; assay type: toxicity, cell-based
[10] = tested on: HCT-116; test: Inhibition of cell proliferation in human HCT-116 cells at 3 uM incubated for 12 hrs by EdU assay (reference value: 48.14 %); assay type: functional
[11] = tested on: HCT-116; test: Cytotoxicity against human HCT-116 cells assessed as cell viability at 5 uM; assay type: functional, cell-based
[12] = tested on: HCT-116; test: Cytotoxicity against human HCT-116 cells assessed as cell viability at 10 uM; assay type: functional, cell-based
[13] = tested on: HCT-116; test: Cytotoxicity against human HCT-116 cells assessed as cell viability upto 20 uM; assay type: functional, cell-based

Structure (SMILES)	selectivity ratio [1]	selectivity ratio [2]	selectivity ratio [3]	IC50 [4]	selectivity ratio [5]	IC50 [6]	IC50 [7]	IC50 [8]	IC50 at 72 h [9]	inhibition at 3 µM [10]	Activity [11]	Activity [12]	Activity [13]
Cc1ccc(NC(=O)OC2O[C@@H]3O[C@@]4(C)CC[C@@H]5[C@H](C)CC[C@@H]([C@H]2C)[C@@]35OO4)cc1 (some centres undefined)	1.93	19.8	26.5	0.59 µM	7.82	8.1 µM	0.79 µM	2 µM	15.6 µM	–	–	–	–
C[C@H]1[C@@H](O)O[C@@H]2O[C@@]3(C)CC[C@H]4[C@H](C)CC[C@@H]1[C@@]24OO3 [ARTENIMOL]	0.2	1.28	1.65	5.1 µM	0.43	43.2 µM	6.61 µM	19.4 µM	8.43 µM	24.5%	–	–	–
COc1ccc(NC(=O)OC2O[C@@H]3O[C@@]4(C)CC[C@@H]5[C@H](C)CC[C@@H]([C@H]2C)[C@@]35OO4)cc1 (some centres undefined)	4.46	34.9	40.2	0.92 µM	6.38	8.3 µM	1.06 µM	5.8 µM	37 µM	–	–	–	–
C[C@@H]1CC[C@H]2[C@@H](C)C(OC(=O)Nc3ccccc3)O[C@@H]3O[C@@]4(C)CC[C@H]1[C@]32OO4 (some centres undefined)	2.9	9.99	18.6	0.72 µM	3.2	4.62 µM	1.34 µM	4.18 µM	13.4 µM	–	–	–	–
C[C@@H]1CC[C@H]2[C@@H](C)C(OC(=O)Nc3ccc(F)cc3)O[C@@H]3O[C@@]4(C)CC[C@H]1[C@]32OO4 (some centres undefined)	1.05	9.04	17.9	0.51 µM	2.85	8.7 µM	1.01 µM	3.2 µM	9.13 µM	–	–	–	–
CC(=O)N(O)CCCCCNC(=O)CCC(=O)N(O)CCCCCNC(=O)CCC(=O)N(O)CCCCCN	–	–	–	–	–	–	–	–	–	–	inactive	–	–
CCOC(=O)c1ccc(NC2CCCCC2)c(N)c1	–	–	–	–	–	–	–	–	–	–	–	inactive	–
C[C@@H]1CC[C@H]2[C@@H](C)C(OC(=O)c3ccc(Cn4cc(Cl)cn4)cc3)O[C@@H]3O[C@@]4(C)CC[C@H]1[C@]32OO4 (some centres undefined)	–	–	–	2.6 µM	–	> 10 µM	5.17 µM	5.07 µM	–	–	–	–	–
C[C@@H]1CC[C@H]2[C@@H](C)C(OC(=O)CCC(=O)OCc3cn(-c4ccc(Cl)cc4)nn3)O[C@@H]3O[C@@]4(C)CC[C@H]1[C@]32OO4 (some centres undefined)	–	–	–	3.03 µM	–	> 10 µM	1.1 µM	> 10 µM	–	–	–	–	–
CCCNC(=O)OC1O[C@@H]2O[C@@]3(C)CC[C@@H]4[C@H](C)CC[C@@H]([C@H]1C)[C@@]24OO3 (some centres undefined)	< 1.21	2.78	25.8	> 10 µM	13.6	> 10 µM	> 10 µM	> 10 µM	12.1 µM	–	–	–	–
CC(C)[C@H](NC(=O)OCc1ccccc1)C(=O)N[C@@H](C)C(=O)N[C@@H](CC(=O)O)C(=O)CF (Cbz-Val-Ala-Asp-CH2F)	–	–	–	–	–	–	–	–	–	–	–	–	inactive
COc1ccc(-n2cc(C(=O)OC3O[C@@H]4O[C@@]5(C)CC[C@@H]6[C@H](C)CC[C@@H]([C@H]3C)[C@@]46OO5)nn2)cc1 (some centres undefined)	–	–	–	3.18 µM	–	8.7 µM	8.4 µM	> 10 µM	–	–	–	–	–
C[C@@H]1CC[C@H]2[C@@H](C)C(OC(=O)c3cn(-c4ccc(Br)cc4)nn3)O[C@@H]3O[C@@]4(C)CC[C@H]1[C@]32OO4 (some centres undefined)	–	–	–	3.87 µM	–	> 10 µM	7.42 µM	> 10 µM	–	–	–	–	–
